The values that follow come from patent US11273152B2, “TRPV2 antagonists” (Instituto de Medicina Molecular João Lobo Antunes, priority 2017, dated 2022).

The target in test [1] is T1, TRPV2 (Homo sapiens, UniProt Q9Y5S1).
T1 sequence (Q9Y5S1 1-764): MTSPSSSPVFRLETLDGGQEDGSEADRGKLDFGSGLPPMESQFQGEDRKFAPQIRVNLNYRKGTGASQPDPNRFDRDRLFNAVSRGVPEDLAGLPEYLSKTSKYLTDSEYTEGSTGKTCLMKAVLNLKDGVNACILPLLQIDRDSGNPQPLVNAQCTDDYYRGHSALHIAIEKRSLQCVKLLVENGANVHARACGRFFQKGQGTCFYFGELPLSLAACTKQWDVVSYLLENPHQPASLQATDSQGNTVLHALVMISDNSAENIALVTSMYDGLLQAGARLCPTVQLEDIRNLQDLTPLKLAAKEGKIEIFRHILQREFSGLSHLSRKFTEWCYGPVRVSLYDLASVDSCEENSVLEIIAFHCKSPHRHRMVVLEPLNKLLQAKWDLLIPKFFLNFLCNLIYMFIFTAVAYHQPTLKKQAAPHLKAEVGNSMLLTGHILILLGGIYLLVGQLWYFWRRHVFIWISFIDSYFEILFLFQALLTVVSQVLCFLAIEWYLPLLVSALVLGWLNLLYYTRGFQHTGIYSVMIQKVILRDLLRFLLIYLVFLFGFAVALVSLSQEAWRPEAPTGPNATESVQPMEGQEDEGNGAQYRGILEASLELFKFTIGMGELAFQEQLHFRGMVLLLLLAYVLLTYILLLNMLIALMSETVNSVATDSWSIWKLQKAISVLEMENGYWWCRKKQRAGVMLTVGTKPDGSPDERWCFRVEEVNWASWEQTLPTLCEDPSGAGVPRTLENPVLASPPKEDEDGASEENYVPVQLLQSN
As to the kind of experiment: Fluorescence cell-based assay, TRPV2 (cannabidiol-evoked calcium influx). Particulars: TRPV2. The method, then: (§1) The assays were performed at SB Discovery (Glasgow, UK) on a fee-for-service basis. Human TRP cells were trypsinised, counted and seeded in black, clear-bottomed 96 well plates at a density of 50,000 cells per well in 100 μL volume and incubated overnight. Next day, the cells were loaded with calcium 5 dye or membrane potential dye. TRPV1-5, TRPA1, TRPM2, TRPM3, and TRPM8 were tested using the calcium 5 dye. TRPC1, TRPC3-7, and TRPM4-5 were tested using the membrane potential dye. Both dye solutions were made up in HEPES buffered Hank's balanced salt solution (HBSS). Dye solution (90 μL) was added to the wells and incubated at 37° C. for 1 hour. Test compounds and standard inhibitors (10 μL) were then added to the wells and incubated at room temperature for 10 minutes. The plates were then placed in the flexstation and fluorescence monitored every 1.52 seconds. After 20 seconds agonist was added and the fluorescence monitored for 2 minutes at 485 nm/525 nm and 530 nm/565 nm, Ex/Em, for the calcium 5 dye and the membrane potential dye respectively. Controls-TRPV1: capsazepine; TRPV2: tranilast; TRPV3: ruthenium red; TRPV4: ruthenium red; TRPV5: Gd^3+; TRPA1, ruthenium red; TRPC1: Gd^3+; TRPC3: Pyr3; TRPC4: ML 204; TRPC5: ML 204; TRPC6: ML 204; TRPC7: SKF 96365; TRPM2: 2-APB; TRPM3: Mef acid; TRPM4: clotrimazole; TRPM5: TPPO; TRPM8: 2-APB. Control data was in all cases within historical range.

Test [2] concerns the target TRPV3 (Homo sapiens, UniProt Q8NET8). As to the kind of experiment: Fluorescence cell-based assay, TRPV3. Particulars: calcium 5 dye, duplicate. The method, then: as §1, with “Control data was in all cases within historical range.” left out
The target of test [3] is TRPV4 (Homo sapiens, UniProt Q9HBA0). The experiment in a line: Fluorescence cell-based assay, TRPV4. Particulars: calcium 5 dye, duplicate. The method, then: as §1, with “Control data was in all cases within historical range.” left out
Test [4] concerns the target TRPV5 (Homo sapiens, UniProt Q9NQA5). As to the kind of experiment: Fluorescence cell-based assay, TRPV5. Particulars: calcium 5 dye, duplicate. The method, then:
as §1, with “Control data was in all cases within historical range.” left out

Test [5] concerns the target TRPC4 (Homo sapiens, UniProt Q9UBN4). As to the kind of experiment: Fluorescence cell-based assay, TRPC4. Particulars: membrane potential dye, duplicate. As to the method:
as §1, with “Control data was in all cases within historical range.” left out

Test [6] has as its target TRPM2 (Homo sapiens, UniProt O94759). As to the kind of experiment: Fluorescence cell-based assay, TRPM2. Particulars: calcium 5 dye, duplicate. The method, then: as §1, with “Control data was in all cases within historical range.” left out
Test [7] addresses TRPM5 (Homo sapiens, UniProt Q9NZQ8). As to the kind of experiment: Fluorescence cell-based assay, TRPM5. Particulars: membrane potential dye, duplicate. The method, then: as §1, with “Control data was in all cases within historical range.” left out
Test [8] deals with T2, human TRPV2-RFP fusion protein (Homo sapiens, UniProt Q9Y5S1).
T2 construct: Itaru Kojima, Gunma University; host or cells: HEK293, transient
As to the kind of experiment: Intracellular calcium imaging in HEK293 transfected with TRPV2-RFP. It is filed as cell-based. Particulars: CBD 4 μM; 1 at 5 μM; 300 s post stimulation. As to the method:
Cells (ATCC) were grown to 50% confluency in DMEM (Gibco) supplemented with 10% FBS (Gibco), GlutaMax (Gibco), MEM and NEAA (Gibco), 4.5 g/L glucose and 0.11 g/L sodium pyruvate. Cells were seeded in μ-ibidi 8 well plates and transfected with TRPV2-RFP^34 (kindly gifted by Prof. Itaru Kojimu Gunma University, Japan). After 48 h of incubation, cells were subjected to calcium imaging. Intracellular calcium measurements were performed with Fura-2 AM (Life Technologies) and modified from previously described studies.^12 In short, 1 hour before the measurement, cells were loaded with 5 μM Fura-2-AM for 45 minutes. Cell medium was replaced by Tyrod's solution (119 mM NaCl, 5 mM KCl, 2 mM CaCl2, 2 mM MgCl2, 6 g/L glucose, 25 mM HEPES pH 7.4). Simultaneously, the respective treatment was added to the cells (final concentration of 1% DMSO (control), 5 μM piperlongumine and 10 μM tranilast) and cells were allowed to re-adjustment for 15 minutes. Fura-2 AM emissions from 340 nm and 380 nm excitation were recorded for 1 minute before TRPV2 was activated by addition of 4 μM or 20 μM cannabidiol (CBD). Image analysis was done using the MetaFluor Analyst software. The statistical analysis was performed with astatsa.com. After calcium imaging acquisition, the cells were immediately fixed with 4% paraformaldehyde for 15 min. […]
(In general: Calcium assays in cells follow changes in intracellular calcium, usually with a dye or a luminescent sensor.)

Test [9] relates to rabbit TRPV2 orthologue. The experiment in a line: Isothermal titration calorimetry, rabbit TRPV2. Particulars: rabbit TRPV2 constructs; 100 μM. It is filed as binding. On the technique in general: Isothermal titration calorimetry measures the heat released or taken up as one component is titrated into another.
In test [10] the test system is sperm whale TRPV2 orthologue. The experiment in a line: Isothermal titration calorimetry, sperm whale TRPV2. It is filed as binding. Particulars: sperm whale TRPV2 constructs; 100 μM.
In test [11] the test system is PC3 cell line. As to the kind of experiment: Cell viability, PC3. It is filed as cell-based. Particulars: 5 and 10 μM, 24 hours. As to the method: (§2) 5,000 cells/well were seeded in 96 well plates with DMEM containing 2% FBS. The next day piperlongumine was added at various concentrations. […] At 24, 48 and 72 hours the media was removed and replaced with CellTiter-Blue (Promega, 1:20 in media). The plate was incubated for 90 minutes before measuring fluorescence intensity.

The test system of test [12] is LNCaP cell line. The experiment in a line: Cell viability, LNCaP. Type of test: cell-based. Particulars: 5 and 10 μM, 24 hours. As to the method:
as §2

The subject of test [13] is U251 cells. As to the kind of experiment: Toxicity assay (CellTiter-Blue), U251. Type of test: cell-based. Particulars: 24, 48 and 72 hours; various concentrations. The method, then: as §2
In general terms: Resazurin is reduced to fluorescent resorufin, in cell work by metabolically active cells.

TRPV5, sequence (Q9NQA5 whole entry): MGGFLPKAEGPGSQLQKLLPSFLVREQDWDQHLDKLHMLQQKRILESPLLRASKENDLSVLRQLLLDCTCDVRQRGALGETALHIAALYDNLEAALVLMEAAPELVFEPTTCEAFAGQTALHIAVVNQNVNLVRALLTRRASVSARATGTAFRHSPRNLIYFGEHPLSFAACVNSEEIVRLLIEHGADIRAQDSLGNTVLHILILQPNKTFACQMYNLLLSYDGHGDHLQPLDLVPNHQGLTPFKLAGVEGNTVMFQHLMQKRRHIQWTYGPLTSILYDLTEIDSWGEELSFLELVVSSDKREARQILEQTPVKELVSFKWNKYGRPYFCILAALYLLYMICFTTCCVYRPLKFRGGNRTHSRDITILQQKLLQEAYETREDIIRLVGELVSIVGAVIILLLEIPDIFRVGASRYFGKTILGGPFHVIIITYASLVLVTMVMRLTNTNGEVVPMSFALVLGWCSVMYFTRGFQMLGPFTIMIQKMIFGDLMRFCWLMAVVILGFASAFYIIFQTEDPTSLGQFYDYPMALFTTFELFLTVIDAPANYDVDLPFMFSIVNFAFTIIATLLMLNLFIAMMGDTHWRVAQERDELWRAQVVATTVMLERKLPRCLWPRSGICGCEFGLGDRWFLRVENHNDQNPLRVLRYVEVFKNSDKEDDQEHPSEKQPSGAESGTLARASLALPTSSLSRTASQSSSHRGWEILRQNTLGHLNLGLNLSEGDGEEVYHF
TRPV3, sequence (Q8NET8 whole entry): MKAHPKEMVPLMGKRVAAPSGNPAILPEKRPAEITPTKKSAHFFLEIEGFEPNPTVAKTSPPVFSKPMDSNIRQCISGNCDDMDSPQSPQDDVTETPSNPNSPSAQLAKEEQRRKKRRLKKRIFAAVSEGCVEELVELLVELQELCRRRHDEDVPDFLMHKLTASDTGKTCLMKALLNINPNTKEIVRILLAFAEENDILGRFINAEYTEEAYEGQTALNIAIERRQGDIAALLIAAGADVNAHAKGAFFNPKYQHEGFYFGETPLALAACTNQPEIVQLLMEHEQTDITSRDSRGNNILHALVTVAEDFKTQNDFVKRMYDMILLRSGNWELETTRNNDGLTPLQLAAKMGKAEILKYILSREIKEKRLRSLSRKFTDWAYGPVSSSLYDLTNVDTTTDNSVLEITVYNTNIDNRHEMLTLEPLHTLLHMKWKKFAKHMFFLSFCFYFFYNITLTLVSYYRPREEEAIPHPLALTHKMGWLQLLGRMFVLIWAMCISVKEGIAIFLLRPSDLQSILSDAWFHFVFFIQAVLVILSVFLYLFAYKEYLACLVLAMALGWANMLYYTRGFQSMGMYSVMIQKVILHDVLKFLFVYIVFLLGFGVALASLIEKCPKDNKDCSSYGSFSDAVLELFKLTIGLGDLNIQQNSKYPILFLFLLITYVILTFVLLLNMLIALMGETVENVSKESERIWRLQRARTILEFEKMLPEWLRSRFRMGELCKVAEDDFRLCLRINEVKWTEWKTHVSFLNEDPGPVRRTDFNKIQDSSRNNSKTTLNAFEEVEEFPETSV
TRPM5, sequence (Q9NZQ8 whole entry, the tested form may be a part): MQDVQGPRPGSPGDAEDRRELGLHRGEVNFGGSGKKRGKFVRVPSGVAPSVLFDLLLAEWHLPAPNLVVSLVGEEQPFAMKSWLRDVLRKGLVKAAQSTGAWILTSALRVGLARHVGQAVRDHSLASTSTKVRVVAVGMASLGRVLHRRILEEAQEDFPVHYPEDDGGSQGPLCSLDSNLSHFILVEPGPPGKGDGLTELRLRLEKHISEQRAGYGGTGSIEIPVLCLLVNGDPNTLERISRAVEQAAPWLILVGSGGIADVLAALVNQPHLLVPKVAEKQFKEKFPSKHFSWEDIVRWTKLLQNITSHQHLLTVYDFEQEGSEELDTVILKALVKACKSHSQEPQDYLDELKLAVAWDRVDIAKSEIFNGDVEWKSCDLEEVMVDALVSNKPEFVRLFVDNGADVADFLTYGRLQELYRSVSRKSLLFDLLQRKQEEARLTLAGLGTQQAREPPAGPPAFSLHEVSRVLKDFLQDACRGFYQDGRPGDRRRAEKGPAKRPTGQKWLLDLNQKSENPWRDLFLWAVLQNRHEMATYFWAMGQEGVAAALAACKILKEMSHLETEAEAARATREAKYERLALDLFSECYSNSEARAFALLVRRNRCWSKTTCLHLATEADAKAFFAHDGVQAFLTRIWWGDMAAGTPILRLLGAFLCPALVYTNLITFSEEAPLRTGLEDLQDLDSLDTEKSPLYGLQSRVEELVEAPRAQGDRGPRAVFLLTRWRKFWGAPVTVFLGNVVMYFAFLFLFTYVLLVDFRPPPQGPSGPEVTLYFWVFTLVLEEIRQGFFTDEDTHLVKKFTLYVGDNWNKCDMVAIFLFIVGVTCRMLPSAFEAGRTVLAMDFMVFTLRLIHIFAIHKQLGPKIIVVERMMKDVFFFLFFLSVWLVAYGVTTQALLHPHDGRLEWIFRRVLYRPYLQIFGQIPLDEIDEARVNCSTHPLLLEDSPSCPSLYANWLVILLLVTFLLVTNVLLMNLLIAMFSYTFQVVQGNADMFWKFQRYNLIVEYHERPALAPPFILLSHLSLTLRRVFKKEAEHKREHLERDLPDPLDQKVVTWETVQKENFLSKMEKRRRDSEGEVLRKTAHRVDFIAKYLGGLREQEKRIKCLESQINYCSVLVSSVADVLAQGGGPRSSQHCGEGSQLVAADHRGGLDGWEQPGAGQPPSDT
TRPC4, sequence (Q9UBN4 whole entry): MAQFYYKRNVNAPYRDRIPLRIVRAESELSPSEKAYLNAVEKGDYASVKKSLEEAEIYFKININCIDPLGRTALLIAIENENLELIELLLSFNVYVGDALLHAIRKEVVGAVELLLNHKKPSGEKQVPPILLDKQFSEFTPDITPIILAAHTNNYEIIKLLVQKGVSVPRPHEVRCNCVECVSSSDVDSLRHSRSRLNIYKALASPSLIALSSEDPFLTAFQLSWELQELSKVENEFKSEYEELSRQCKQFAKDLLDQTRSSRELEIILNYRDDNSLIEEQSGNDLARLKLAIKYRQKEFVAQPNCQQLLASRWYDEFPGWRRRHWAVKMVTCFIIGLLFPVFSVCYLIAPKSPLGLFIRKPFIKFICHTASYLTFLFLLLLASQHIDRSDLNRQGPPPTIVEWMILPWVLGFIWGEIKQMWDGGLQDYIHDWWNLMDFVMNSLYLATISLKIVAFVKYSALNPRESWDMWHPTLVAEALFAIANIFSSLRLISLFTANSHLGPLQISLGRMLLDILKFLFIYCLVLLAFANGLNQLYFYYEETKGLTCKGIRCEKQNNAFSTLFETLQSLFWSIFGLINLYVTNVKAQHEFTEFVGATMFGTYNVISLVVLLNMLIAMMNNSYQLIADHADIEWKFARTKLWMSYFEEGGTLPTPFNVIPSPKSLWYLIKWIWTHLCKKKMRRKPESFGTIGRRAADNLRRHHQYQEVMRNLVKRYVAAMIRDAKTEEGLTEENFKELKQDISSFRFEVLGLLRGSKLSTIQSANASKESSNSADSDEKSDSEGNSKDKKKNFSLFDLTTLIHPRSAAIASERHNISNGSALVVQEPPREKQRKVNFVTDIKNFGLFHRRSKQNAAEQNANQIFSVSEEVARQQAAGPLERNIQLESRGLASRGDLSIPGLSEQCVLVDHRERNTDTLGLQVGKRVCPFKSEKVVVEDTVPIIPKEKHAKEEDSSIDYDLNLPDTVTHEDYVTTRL
TRPV4, sequence (Q9HBA0 whole entry): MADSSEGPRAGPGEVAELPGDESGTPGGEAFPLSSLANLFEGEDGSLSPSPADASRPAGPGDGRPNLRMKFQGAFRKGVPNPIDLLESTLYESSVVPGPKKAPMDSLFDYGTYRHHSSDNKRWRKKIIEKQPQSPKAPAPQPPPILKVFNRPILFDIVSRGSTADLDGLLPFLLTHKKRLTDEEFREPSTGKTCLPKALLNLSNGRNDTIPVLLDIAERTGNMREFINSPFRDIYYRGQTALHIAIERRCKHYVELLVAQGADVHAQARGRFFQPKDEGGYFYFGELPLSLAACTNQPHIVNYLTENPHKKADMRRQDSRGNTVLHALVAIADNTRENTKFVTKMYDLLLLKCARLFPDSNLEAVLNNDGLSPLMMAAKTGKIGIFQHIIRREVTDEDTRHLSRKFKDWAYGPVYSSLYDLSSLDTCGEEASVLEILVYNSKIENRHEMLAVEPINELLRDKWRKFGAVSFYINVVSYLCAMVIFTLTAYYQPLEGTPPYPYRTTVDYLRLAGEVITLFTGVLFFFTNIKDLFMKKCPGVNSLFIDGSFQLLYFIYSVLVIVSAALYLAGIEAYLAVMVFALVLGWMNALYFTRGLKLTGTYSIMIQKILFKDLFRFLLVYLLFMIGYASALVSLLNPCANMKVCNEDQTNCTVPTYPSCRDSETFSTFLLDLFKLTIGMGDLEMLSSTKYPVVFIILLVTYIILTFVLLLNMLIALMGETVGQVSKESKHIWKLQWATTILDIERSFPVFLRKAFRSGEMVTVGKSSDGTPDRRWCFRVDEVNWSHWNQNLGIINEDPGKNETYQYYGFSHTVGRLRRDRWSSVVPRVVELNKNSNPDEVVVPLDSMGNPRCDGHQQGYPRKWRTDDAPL

On to `COc1cc(/C=C/C(=O)N2CCC=CC2=O)cc(OC)c1OC` [Compound 1, piperlongumine], for which the “Ligand Efficiency” value in [1] is listed as 0.32. Besides, the IC50 in test [1] (calcium 5 dye, spread in log units, duplicate, read-out: IC50/μM ± SD) is 4.6 µM; in test [2], > 100 µM; in test [3], > 100 µM; in test [4], > 100 µM; in [5] it was > 100 µM; in test [6], > 100 µM. Further, the IC50 in test [7] was > 100 µM. In test [8], the “Inhibition of CBD evoked calcium influx in transfected HEK293 cells” value was “significant difference between control and 1 (p<0.001)”. In addition, the “Binding by isothermal titration calorimetry” value in test [9] and in test [10] was “did not bind” in each case. Further, the Cell viability entry in [11] and in test [12] was “cell viability was compromised” throughout. In addition, the “Sensitivity of U251 cells” value in [13] was “sensitive to PL in a dose- and time-dependent manner”.
